Common to all, as to assay type: physicochemical
Series [1] is described as follows: Stability post-storage at 40° C./75% RH assessed by XRPD. Conditions: form change assessed by XRPD. The procedure: (§1) Representative samples for the twenty-six forms were further analysed by NMR/IC and DSC. The stability of the samples after storage at 40° C./75% RH was also assessed by XRPD. Solubility in FeSSIF media was determined for selected samples. […] IC was employed to determine the molar equivalence for inorganic counterions, sulphate and phosphate.

A short description of series [2]: Thermodynamic solubility in FeSSIF. Conditions: for Solubility in FeSSiF: fed state simulated intestinal fluid (FeSSIF), equilibrated at 25° C. for 24 hours; for XRPD of residue: residue of the FeSSIF solubility test, analysed by XRPD as a damp solid. The procedure:
Solubility was determined by suspending sufficient compound in fed state simulated intestinal fluid (FeSSIF) to give a maximum final concentration of >3 mg/ml of the parent free-form of the compound. The suspension was equilibrated at 25° C. for 24 hours then the pH was measured. The suspension was then filtered through a glass fibre C filter. The residue was analysed by XRPD as a damp solid. The filtrate was diluted by an appropriate factor prior to analysis by HPLC. Quantitation by HPLC was performed with reference to a standard solution of approximately 0.2 mg/ml in DMSO. Different volumes of the standard, diluted and undiluted sample solutions were injected. The solubility was calculated using the peak areas determined by integration of the peak found at the same retention time as the principal peak in the standard injection. Analysis was performed on an Agilent HP1100 series system equipped with a diode array detector and using ChemStation software vB.04.03.

Series [3] is described as follows: Thermal stability from onset of DSC events. Particulars: onsets of DSC events greater than 200° C. The procedure: DSC data were collected on a Mettler DSC 823E equipped with a 34 position auto-sampler. The instrument was calibrated for energy and temperature using certified indium. Typically, 0.9-6 mg of each sample, in a pin-holed aluminum pan, was heated at 10° C./min from 25° C. to 350° C. A nitrogen purge at 50 ml/min was maintained over the sample. The instrument control and data analysis software was STARe v12.1.
The twenty remaining forms have thermal events occurring from as low as ˜30° C. These may be solvated/hydrated forms.

The nature of series [4]: Salt screen assessment compared to the HCl salt. The procedure: as §1

Values after ≈ are worked out from the molar mass of the structure shown.

On to `COc1ccc(-c2c(-c3ccc(C#N)c(F)c3)nc(N3CCC(N)CC3)n(C)c2=O)cc1F` [FUA 3, 4-[2-(4-aminopiperidin-1-yl)-5-(3-fluoro-4-methoxyphenyl)-1-methyl-6-oxo-1,6-dihydropyrimidin-4-yl]-2-fluorobenzonitrile], for which the “Stability post-storage at 40° C./75% RH” value in series [1] is reported as “Pattern change”.
Take `COc1ccc(-c2c(-c3ccc(C#N)c(F)c3)nc(N3CCC(N)CC3)n(C)c2=O)cc1F` [BSA 2, 4-[2-(4-aminopiperidin-1-yl)-5-(3-fluoro-4-methoxyphenyl)-1-methyl-6-oxo-1,6-dihydropyrimidin-4-yl]-2-fluorobenzonitrile]: the “Stability post-storage at 40° C./75% RH” value in series [1] is reported as “Extra peaks observed”.
For `COc1ccc(-c2c(-c3ccc(C#N)c(F)c3)nc(N3CCC(N)CC3)n(C)c2=O)cc1F` [pTSA 1, 4-[2-(4-aminopiperidin-1-yl)-5-(3-fluoro-4-methoxyphenyl)-1-methyl-6-oxo-1,6-dihydropyrimidin-4-yl]-2-fluorobenzonitrile], in series [2], the “Solubility in FeSSiF” value was 870 µg/mL (≈ 1930 µM) and the XRPD of residue result was “pTSA 1”. Besides, the “Stability post-storage at 40° C./75% RH” value in series [1] was “No form change”. Besides, in series [3], the thermal stability result is “good thermal stability”. The “stability and solubility when compared to the HCl salt” value in series [4] is “improved stability and solubility”.
For `COc1ccc(-c2c(-c3ccc(C#N)c(F)c3)nc(N3CCC(N)CC3)n(C)c2=O)cc1F` [MLNA 2, 4-[2-(4-aminopiperidin-1-yl)-5-(3-fluoro-4-methoxyphenyl)-1-methyl-6-oxo-1,6-dihydropyrimidin-4-yl]-2-fluorobenzonitrile], in series [1], the “Stability post-storage at 40° C./75% RH” value is listed as “Pattern change”.
For the molecule `COc1ccc(-c2c(-c3ccc(C#N)c(F)c3)nc(N3CCC(N)CC3)n(C)c2=O)cc1F` [FUA 2, 4-[2-(4-aminopiperidin-1-yl)-5-(3-fluoro-4-methoxyphenyl)-1-methyl-6-oxo-1,6-dihydropyrimidin-4-yl]-2-fluorobenzonitrile], in series [1], the “Stability post-storage at 40° C./75% RH” value was “Increased”.
Turning to `COc1ccc(-c2c(-c3ccc(C#N)c(F)c3)nc(N3CCC(N)CC3)n(C)c2=O)cc1F` [CA 2, 4-[2-(4-aminopiperidin-1-yl)-5-(3-fluoro-4-methoxyphenyl)-1-methyl-6-oxo-1,6-dihydropyrimidin-4-yl]-2-fluorobenzonitrile], the “Stability post-storage at 40° C./75% RH” value in series [1] was “No form change”.
As for `COc1ccc(-c2c(-c3ccc(C#N)c(F)c3)nc(N3CCC(N)CC3)n(C)c2=O)cc1F` [MA 3, 4-[2-(4-aminopiperidin-1-yl)-5-(3-fluoro-4-methoxyphenyl)-1-methyl-6-oxo-1,6-dihydropyrimidin-4-yl]-2-fluorobenzonitrile], the “Stability post-storage at 40° C./75% RH” value in series [1] is “Pattern change”.
With `COc1ccc(-c2c(-c3ccc(C#N)c(F)c3)nc(N3CCC(N)CC3)n(C)c2=O)cc1F` [PHOA 1, 4-[2-(4-aminopiperidin-1-yl)-5-(3-fluoro-4-methoxyphenyl)-1-methyl-6-oxo-1,6-dihydropyrimidin-4-yl]-2-fluorobenzonitrile], in series [2], the “Solubility in FeSSiF” value was 740 µg/mL (≈ 1640 µM) and the XRPD of residue result was “Amorphous”. In addition, the “Stability post-storage at 40° C./75% RH” value in series [1] is recorded as “No form change”. The thermal stability entry in series [3] is “good thermal stability”. In addition, in series [4], the “stability and solubility when compared to the HCl salt” value was “improved stability and solubility”.
Regarding `COc1ccc(-c2c(-c3ccc(C#N)c(F)c3)nc(N3CCC(N)CC3)n(C)c2=O)cc1F` [TAR 1, 4-[2-(4-aminopiperidin-1-yl)-5-(3-fluoro-4-methoxyphenyl)-1-methyl-6-oxo-1,6-dihydropyrimidin-4-yl]-2-fluorobenzonitrile], in series [1], the “Stability post-storage at 40° C./75% RH” value is “Pattern change”.
As for `COc1ccc(-c2c(-c3ccc(C#N)c(F)c3)nc(N3CCC(N)CC3)n(C)c2=O)cc1F` [MSA 2, 4-[2-(4-aminopiperidin-1-yl)-5-(3-fluoro-4-methoxyphenyl)-1-methyl-6-oxo-1,6-dihydropyrimidin-4-yl]-2-fluorobenzonitrile], the “Stability post-storage at 40° C./75% RH” value in series [1] was “Extra peaks observed”.
Turning to `COc1ccc(-c2c(-c3ccc(C#N)c(F)c3)nc(N3CCC(N)CC3)n(C)c2=O)cc1F` [MA 2, 4-[2-(4-aminopiperidin-1-yl)-5-(3-fluoro-4-methoxyphenyl)-1-methyl-6-oxo-1,6-dihydropyrimidin-4-yl]-2-fluorobenzonitrile], the “Stability post-storage at 40° C./75% RH” value in series [1] is reported as “Pattern change”.
With `COc1ccc(-c2c(-c3ccc(C#N)c(F)c3)nc(N3CCC(N)CC3)n(C)c2=O)cc1F` [PHOA 2, 4-[2-(4-aminopiperidin-1-yl)-5-(3-fluoro-4-methoxyphenyl)-1-methyl-6-oxo-1,6-dihydropyrimidin-4-yl]-2-fluorobenzonitrile], the “Stability post-storage at 40° C./75% RH” value in series [1] is on record as “Pattern change”.
Consider `COc1ccc(-c2c(-c3ccc(C#N)c(F)c3)nc(N3CCC(N)CC3)n(C)c2=O)cc1F` [SUCA 1, 4-[2-(4-aminopiperidin-1-yl)-5-(3-fluoro-4-methoxyphenyl)-1-methyl-6-oxo-1,6-dihydropyrimidin-4-yl]-2-fluorobenzonitrile], for which, in series [2], the “Solubility in FeSSiF” value is 960 µg/mL (≈ 2130 µM) and the XRPD of residue result is “Amorphous”.
On to `COc1ccc(-c2c(-c3ccc(C#N)c(F)c3)nc(N3CCC(N)CC3)n(C)c2=O)cc1F` [pTSA 2, 4-[2-(4-aminopiperidin-1-yl)-5-(3-fluoro-4-methoxyphenyl)-1-methyl-6-oxo-1,6-dihydropyrimidin-4-yl]-2-fluorobenzonitrile], for which, in series [1], the “Stability post-storage at 40° C./75% RH” value is “Slight change in pattern”.
On to `COc1ccc(-c2c(-c3ccc(C#N)c(F)c3)nc(N3CCC(N)CC3)n(C)c2=O)cc1F` [CA 1, 4-[2-(4-aminopiperidin-1-yl)-5-(3-fluoro-4-methoxyphenyl)-1-methyl-6-oxo-1,6-dihydropyrimidin-4-yl]-2-fluorobenzonitrile], for which the “Stability post-storage at 40° C./75% RH” value in series [1] was “Pattern change”.
The same measure, in the same setting: with `COc1ccc(-c2c(-c3ccc(C#N)c(F)c3)nc(N3CCC(N)CC3)n(C)c2=O)cc1F` [BA 2, 4-[2-(4-aminopiperidin-1-yl)-5-(3-fluoro-4-methoxyphenyl)-1-methyl-6-oxo-1,6-dihydropyrimidin-4-yl]-2-fluorobenzonitrile] the entry was “No significant”; with `COc1ccc(-c2c(-c3ccc(C#N)c(F)c3)nc(N3CCC(N)CC3)n(C)c2=O)cc1F` [MLNA 1, 4-[2-(4-aminopiperidin-1-yl)-5-(3-fluoro-4-methoxyphenyl)-1-methyl-6-oxo-1,6-dihydropyrimidin-4-yl]-2-fluorobenzonitrile], “Pattern change”.
On to `COc1ccc(-c2c(-c3ccc(C#N)c(F)c3)nc(N3CCC(N)CC3)n(C)c2=O)cc1F` [free base, 4-[2-(4-aminopiperidin-1-yl)-5-(3-fluoro-4-methoxyphenyl)-1-methyl-6-oxo-1,6-dihydropyrimidin-4-yl]-2-fluorobenzonitrile], for which the “Solubility in FeSSiF” value in series [2] is 280 µg/mL (≈ 620 µM).
As to `COc1ccc(-c2c(-c3ccc(C#N)c(F)c3)nc(N3CCC(N)CC3)n(C)c2=O)cc1F` [FUA 1, 4-[2-(4-aminopiperidin-1-yl)-5-(3-fluoro-4-methoxyphenyl)-1-methyl-6-oxo-1,6-dihydropyrimidin-4-yl]-2-fluorobenzonitrile], the “Stability post-storage at 40° C./75% RH” value in series [1] is “Pattern change”.
Turning to `COc1ccc(-c2c(-c3ccc(C#N)c(F)c3)nc(N3CCC(N)CC3)n(C)c2=O)cc1F` [MA 1, 4-[2-(4-aminopiperidin-1-yl)-5-(3-fluoro-4-methoxyphenyl)-1-methyl-6-oxo-1,6-dihydropyrimidin-4-yl]-2-fluorobenzonitrile], in series [2], the “Solubility in FeSSiF” value was 630 µg/mL (≈ 1400 µM) and the XRPD of residue entry is “Amorphous”. For the same molecule, the “Stability post-storage at 40° C./75% RH” value in series [1] is reported as “Amorphous”.
Regarding `COc1ccc(-c2c(-c3ccc(C#N)c(F)c3)nc(N3CCC(N)CC3)n(C)c2=O)cc1F` [SUCA 2, 4-[2-(4-aminopiperidin-1-yl)-5-(3-fluoro-4-methoxyphenyl)-1-methyl-6-oxo-1,6-dihydropyrimidin-4-yl]-2-fluorobenzonitrile], the “Stability post-storage at 40° C./75% RH” value in series [1] is “Pattern change”.
Still for that read-out and setting: with `COc1ccc(-c2c(-c3ccc(C#N)c(F)c3)nc(N3CCC(N)CC3)n(C)c2=O)cc1F` [PHOA 3, 4-[2-(4-aminopiperidin-1-yl)-5-(3-fluoro-4-methoxyphenyl)-1-methyl-6-oxo-1,6-dihydropyrimidin-4-yl]-2-fluorobenzonitrile] the entry was “Reduced crystallinity”.

The values are drawn from patent publication US10047069B2, “Compositions comprising an inhibitor of lysine specific demethylase-1” (Celgene Quanticel Research, Inc., priority 2015, dated 2018).
